Results on six compounds are retold here after PubChem BioAssay (NCI).

What all share (test): NCI-60 cell line screen, 48 h
The test system of assay [1] is OVCAR-3 ovarian.
In assay [2] the test system is CAKI-1 renal.
In assay [3] the test system is LOX IMVI melanoma.
Assay [4] deals with SK-OV-3 ovarian.
Assay [5] deals with SK-MEL-2 melanoma.
For assay [6], the system named is NCI-H460 lung.
For assay [7], the system named is HCT-116 colon.
In assay [8] the test system is RXF 393 renal.
In assay [9] the test system is BT-549 breast.
The subject of assay [10] is EKVX NSCLC.

Where “and” joins values, the source holds several entries; their conditions need not be identical. Equal values may be shown once.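 Interpolation was linear, between the two tested concentrations surrounding the appropriate level; five concentrations were tested over 48 hours in 96-well plates. At the GI50, growth is halved. At the TGI there is no net growth.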

Regarding `O=C1CCC(N2Cc3c(C#CCCCNC(=O)c4cc5c(o4)C(=O)c4ccccc4C5=O)cccc3C2=O)C(=O)N1` (stereo unspecified), the GI50 in assay [1] was 1.97 µM; in [2], 14.3 µM; in assay [3] it was 2.14 µM; in assay [4], 15.9 µM; in [5], 2.54 µM; in assay [6], 1.99 µM. Moreover, the GI50 in assay [7] is 3.09 µM; in assay [8] it was 4.55 µM; in assay [9], 1.73 µM; in assay [10], 15 µM. Besides, the TGI in assay [1] turned out to be 4.8 µM; in assay [2] it was 30.7 µM; in [3], 5.49 µM; in assay [4] it was 30.4 µM; in assay [5] it was 6.47 µM; in assay [6], 4.09 µM. Also, the TGI came out at 10.3 µM in assay [7], 18.2 µM in assay [8], 3.17 µM in assay [9] and 31.1 µM in [10].

As to `Nc1ccc(-c2nc3ccccc3o2)cc1S`, the GI50 in [1] is 15.8 µM; in assay [2], 20.5 µM; in [3], 12.3 µM; in assay [4], 23.2 µM; in [5], 42.4 µM; in [6] it was 13.2 µM. Further, the GI50 was 15.1 µM in assay [7], 29.4 µM in [8], 23.6 µM in assay [9] and 11.6 µM in assay [10]. For the same compound, the TGI in assay [1] is 31 µM; in assay [2], 36.4 µM; in [3], 24.8 µM; in [4], 65.1 µM; in assay [5] it was greater than 100 µM; in [6], 29.6 µM. For the same compound, the TGI in assay [7] was 28.3 µM; in assay [8], 59.6 µM; in assay [9], 49.8 µM; in assay [10], 55.3 µM.

Take `S=C(c1ccc2c(c1)OCO2)N1CCN(c2cccc(Cl)c2)CC1`: the GI50 is 0.338 µM in [1]; 1.14 µM in assay [3]; 2.91 µM in [4]; greater than 100 µM in [5]; 0.387 µM in assay [6]; 0.454 µM in assay [7]. Also, the GI50 in assay [8] is 10.9 µM; in assay [9], 9.32 µM; in assay [10] it was 4.52 µM. Besides, the TGI was 1.23 µM in assay [1]; greater than 100 µM in [2]; greater than 100 µM in assay [3]; greater than 93.9 µM in [4]; greater than 100 µM in assay [5]; greater than 74.7 µM in assay [6]. Moreover, the TGI in assay [7] was 14.5 µM; in assay [8], 40.8 µM; in assay [9], greater than 100 µM; in assay [10], greater than 100 µM.

On to `CC(C)NC(=O)OCc1c(COC(=O)NC(C)C)c(-c2ccc(Cl)c(Cl)c2)n2c1CCC2`, for which the TGI in [1] was 69.9 µM; in [2], 42.2 µM; in assay [3], 66.6 µM; in assay [4], greater than 76.8 µM; in assay [5], greater than 65.1 µM; in [6], 68.3 µM. Besides, the TGI in assay [7] was 73 µM; in assay [8], 46.9 µM; in assay [9], greater than 100 µM; in assay [10] it was 69.6 µM.

For the compound `O=C(O)c1ccccc1-c1ccccc1C(=O)Nc1ccc2c(c1)[nH]c(=O)c1ccccc12`, the TGI in assay [1], in assay [2], in assay [3], in assay [4], in assay [5] and in [6] was greater than 100 µM throughout. Further, the TGI in assay [7], in assay [8], in assay [9] and in [10] was greater than 100 µM in each case.

In the case of `OCC1OC(n2cnc3c2NC=NC[C@H]3O)CC1O` (stereo partly specified), the GI50 in assay [1] was greater than 588 µM; in assay [2], 351 µM and > 588 µM; in [4], greater than 588 µM; in [5], greater than 588 µM; in assay [6], greater than 588 µM; in assay [7], greater than 588 µM. The GI50 in assay [8] was greater than 588 µM. The TGI in assay [1] is 500 µM and > 588 µM; in [2] it was 495 µM and > 588 µM; in assay [3] it was 500 µM; in [4] it was 474 µM and > 588 µM; in assay [5] it was 500 µM and > 588 µM; in assay [6] it was 480 µM and > 588 µM. The TGI was 500 µM and > 588 µM in assay [7]; 500 µM and > 588 µM in assay [8]; greater than 500 µM in [9]; 500 µM in assay [10].
